Like-named read-outs stand apart in the source and are kept apart here. Bounds are passed on as bounds.

Experiment [1] deals with A549 human lung cells expressing low Bcl-2 and high Bcl-XL levels. Description: Acute cytotoxicity (apoptotic activity), Alamar Blue viability, A549 cells. It is filed as cell-based. As for the experimental part: (§1) The biological activity of the compounds provided herein were assessed in cellular system by the method similar to the one described by Amundson et al. (Amundson, S. A. et al, Cancer Research 2000, 60, 6101-6110), which is incorporated herein by reference in its entirety. The compounds were tested for acute cytotoxicity (apoptotic activity) using two human cancer cell lines expressing high levels of either Bcl-2 or BCl-XL. HL60, human leukemic cells expressing high Bcl-2 and low BCl-XL levels, and A549 human lung cells expressing low Bcl-2 and high BCl-XL levels, were incubated with the compounds at concentrations between 0.5 and 1000 μg/mL for 4 hours at 37° C., 5% CO2. The number of viable cells were measured by mitochondrial transformation of Alamar Blue to a fluorescent dye. LC50 values for each test compound and controls are provided in the individual examples that follow.
(§2) The compounds provided herein were tested for acute cytoxicity (apoptotic activity) using two human cancer cell lines expressing high levels of either Bcl-2 or BCl-XL. HL-60 cells expressing high Bcl-2 and low Bcl-XL levels, and A549 human lung cells expressing low Bcl-2 and high Bcl-XL levels were incubated with the compounds provided herein at concentrations between 0.5 and 1000 μg/mL for 4 hours at 37° C., 5% CO2. The number of viable cells were measured by mitochondrial transformation of Alamar Blue to a fluorescent dye. As negative controls, the compounds were tested against the cell lines with low levels of Bcl-2 expression, viz., MDA-453 cells. LC50 values for each compound and controls were determined.

Experiment [2] deals with HL60, human leukemic cells expressing high Bcl-2 and low Bcl-XL levels. In words: Acute cytotoxicity (apoptotic activity), Alamar Blue viability, HL-60 cells. The experiment is classed as cell-based. As for the experimental part:
as §1, §2

The mark [3] stands for this setting: Homo sapiens, A549, 4 h; read-out: LC 50 (μM) A549.
Where [4] appears, read: Homo sapiens, HL-60, 4 h; read-out: LC 50 (μM) HL-60.
Where [5] appears, read: Homo sapiens, A549; 4 hours at 37° C.; read-out: LC50 value in A549 cell lines.
The mark [6] stands for this setting: Homo sapiens, HL-60; 4 hours at 37° C.; read-out: LC50 value in HL-60 cell lines.

In the case of `[O-][n+]1ccccc1Cl` [compound 29], the CC50 in experiment [1] (setting [3]) and in experiment [2] (setting [4]) was above 200 µM throughout. As for `O=S(=O)(c1ccccc1)c1ccc(S(=O)(=O)c2ccccc2)[n+]([O-])n1` [Example 1, 3,6-bis(benzenesulfonyl)pyridazine-1-oxide], the CC50 worked out at 268 µM in experiment [1] (setting [5]) and 20.5 µM in experiment [2] (setting [6]). With `COC(=O)c1ccccc1S(=O)(=O)c1ccc(S(=O)(=O)C2CCCCC2)[n+]([O-])n1` [compound 43], the CC50 in experiment [1] (setting [3]) was above 200 µM; in experiment [2] (setting [4]) it was below 50 µM. For `O=S(=O)(Cc1ccccc1)c1ccc(S(=O)(=O)Cc2ccccc2)[n+]([O-])n1` [compound 14], in that order: above 200 µM and above 200 µM. Turning to `O=S(=O)(c1ccccc1)c1n[n+]([O-])c(O)c2ccccc12` [compound 44], the CC50 in experiment [1] (setting [3]) and in experiment [2] (setting [4]) was above 200 µM each time. For `CCS(=O)(=O)c1n[n+]([O-])c(OC(=O)c2cccc(Cl)c2)c2ccccc12` [compound 45], the CC50 in experiment [1] (setting [3]) and in experiment [2] (setting [4]) was above 200 µM throughout. Take `COc1cccc(S(=O)(=O)c2ccc(S(=O)(=O)c3cccc(OC)c3)[n+]([O-])n2)c1` [compound 21]: the CC50 in experiment [1] (setting [3]) and in experiment [2] (setting [4]) was above 200 µM in each case. Regarding `COc1ccc(Sc2ccc(Sc3ccc(OC)cc3)[n+]([O-])n2)cc1` [compound 10], the CC50 in experiment [1] (setting [3]) and in experiment [2] (setting [4]) was above 200 µM each time. As for `CC(=O)NCCS(=O)(=O)c1ccc(S(=O)(=O)C2CCCCC2)[n+]([O-])n1` [compound 56], the CC50 in experiment [1] (setting [3]) and in experiment [2] (setting [4]) was above 200 µM throughout. Take `COC(=O)c1ccc(S(=O)(=O)c2ccc(S(=O)(=O)C3CCCCC3)[n+]([O-])n2)cc1` [compound 59]: the CC50 in experiment [1] (setting [3]) was above 200 µM; in experiment [2] (setting [4]) it was below 50 µM. Consider `O=S(=O)(CCO)c1ccc(S(=O)(=O)C2CCCCC2)[n+]([O-])n1` [compound 47], for which the CC50 in experiment [1] (setting [3]) and in experiment [2] (setting [4]) was above 200 µM each time. Take `O=C(O)c1ccc(S(=O)(=O)c2ccc(S(=O)(=O)C3CCCCC3)[n+]([O-])n2)cc1` [compound 57]: the CC50 in experiment [1] (setting [3]) and in experiment [2] (setting [4]) was above 200 µM in each case. As for `COc1ccc(Cl)[n+]([O-])n1` [compound 3], the CC50 in experiment [1] (setting [3]) and in experiment [2] (setting [4]) was above 200 µM each time.

For `CS(=O)(=O)Nc1ccc(S(=O)(=O)c2ccc(S(=O)(=O)C3CCCCC3)[n+]([O-])n2)cc1` [compound 58], the CC50 in experiment [1] (setting [3]) and in experiment [2] (setting [4]) was above 200 µM throughout. In the case of `Cc1ccccc1S(=O)(=O)c1ccc(S(=O)(=O)c2ccccc2C)[n+]([O-])n1` [compound 19], the CC50 is above 200 µM in experiment [1] (setting [3]) and 50 to 200 µM in experiment [2] (setting [4]). Turning to `O=S(=O)(c1ccccc1)c1ccc(Cl)n[n+]1[O-]` [compound 40], the CC50 in experiment [1] (setting [3]) is above 200 µM; in experiment [2] (setting [4]), below 50 µM.

For `[O-][n+]1nc(Sc2ccccc2)ccc1Sc1ccccc1` [compound 5], the CC50 in experiment [2] (setting [4]) was above 200 µM. With `CCS(=O)(=O)c1ccc(S(=O)(=O)CC)[n+]([O-])n1` [compound 12], the CC50 in experiment [1] (setting [3]) and in experiment [2] (setting [4]) was 50 to 200 µM in each case. Consider `Cc1cc(Cl)n[n+]([O-])c1Cl` [compound 23], for which the CC50 in experiment [1] (setting [3]) and in experiment [2] (setting [4]) was above 200 µM each time.

For the compound `CCSc1ccc(S(=O)(=O)C2CCCCC2)n[n+]1[O-]` [compound 38], the CC50 in experiment [1] (setting [3]) and in experiment [2] (setting [4]) was above 200 µM in each case. Regarding `O=S(=O)(c1ccc(Cl)n[n+]1[O-])C1CCCCC1` [Example 4, 3-chloro-6-cyclohexanesulfonyl-pyridazine-1-oxide], the CC50 in experiment [1] (setting [5]) is 188 µM; in experiment [2] (setting [6]), 20.2 µM. The matching figures for `O=S(=O)(c1ccccc1)c1ccc(S(=O)(=O)C2CCCCC2)[n+]([O-])n1` [Example 5, 3-benzenesulfonyl-6-cyclohexanesulfonyl-pyridazine-1-oxide]: 279 µM and 32.9 µM. In the case of `O=S(=O)(c1ccc(S(=O)(=O)C2CCCC2)[n+]([O-])n1)C1CCCC1` [compound 13], the CC50 in experiment [1] (setting [3]) is above 200 µM; in experiment [2] (setting [4]) it was below 50 µM. Take `Cc1cccc(S(=O)(=O)c2ccc(S(=O)(=O)c3cccc(C)c3)[n+]([O-])n2)c1` [compound 18]: the CC50 in experiment [1] (setting [3]) and in experiment [2] (setting [4]) was above 200 µM in each case. Regarding `O=S(=O)(c1ccc(S(=O)(=O)C2CCCCC2)[n+]([O-])n1)C1CCCCC1` [Example 3, 3,6-bis-cyclohexanesulfonyl-pyridazine-1-oxide], the figures for the CC50 in experiment [1] (setting [5]) and in experiment [2] (setting [6]) were 192 µM and 32.3 µM, respectively. Turning to `O=S(=O)(c1ccc(S(=O)(=O)C2CCCCC2)[n+]([O-])n1)c1ccccc1Cl` [compound 42], the CC50 in experiment [1] (setting [3]) is 50 to 200 µM; in experiment [2] (setting [4]), below 50 µM. For `O=S(=O)(c1cc[n+]([O-])cc1)c1ccc(S(=O)(=O)C2CCCCC2)[n+]([O-])n1` [compound 53], in that order: above 200 µM and 50 to 200 µM. The matching figures for `Cc1cc(Cl)[n+]([O-])nc1Cl` [compound 17]: above 200 µM and above 200 µM. For `O=[N+]([O-])c1ccc(Sc2ccc(Sc3ccc([N+](=O)[O-])cc3)nn2)cc1` [compound 9], the CC50 is above 200 µM in experiment [1] (Homo sapiens, A549, 4 h, read-out: LC 50 (μM) A549) and above 200 µM in experiment [2] (Homo sapiens, HL-60, 4 h, read-out: LC 50 (μM) HL-60). In the case of `CCOc1ccc(S(=O)(=O)C2CCCCC2)[n+]([O-])n1` [compound 31], the CC50 in experiment [1] (setting [3]) and in experiment [2] (setting [4]) was above 200 µM each time. Regarding `COc1ccccc1S(=O)(=O)c1ccc(S(=O)(=O)C2CCCCC2)[n+]([O-])n1` [compound 39], the CC50 in experiment [1] (setting [3]) is 50 to 200 µM; in experiment [2] (setting [4]) it was below 50 µM. For `Clc1ccc(Cl)nn1` [compound 1], in that order: above 200 µM and above 200 µM. As for `O=S(=O)(c1ccc(O)cc1)c1ccc(S(=O)(=O)C2CCCCC2)[n+]([O-])n1` [compound 50], the CC50 in experiment [1] (setting [3]) was above 200 µM; in experiment [2] (setting [4]), 50 to 200 µM. For `O=S(=O)(c1ccc(-c2ccccc2)n[n+]1[O-])C1CCCCC1` [compound 61], in that order: above 200 µM and above 200 µM. The matching figures for `[O-][n+]1nc(Oc2ccccc2)ccc1Oc1ccccc1` [compound 4]: above 200 µM and above 200 µM.

`O=S(=O)(c1ccccc1)c1ccc(S(=O)(=O)C2CCCCC2)[n+]([O-])n1` [compound 34]: the CC50 is above 200 µM in experiment [1] (setting [3]) and below 50 µM in experiment [2] (setting [4]).

As for `O=C(O)c1ccccc1Sc1ccc(SC2CCCCC2)[n+]([O-])n1` [compound 46], the CC50 in experiment [1] (setting [3]) and in experiment [2] (setting [4]) was above 200 µM throughout. For the compound `COC(=O)CCS(=O)(=O)c1ccc(S(=O)(=O)C2CCCCC2)[n+]([O-])n1` [compound 48], the CC50 was above 200 µM in experiment [1] (setting [3]) and below 50 µM in experiment [2] (setting [4]). For `O=S(=O)(c1ccc(Cl)n[n+]1[O-])C1CCCCC1` [compound 28], in that order: above 200 µM and below 50 µM. For `Nc1ccc(S(=O)(=O)c2ccc(S(=O)(=O)C3CCCCC3)[n+]([O-])n2)cc1` [compound 55], in that order: above 200 µM and below 50 µM. Turning to `CC(=O)Oc1ccc(S(=O)(=O)c2ccc(S(=O)(=O)C3CCCCC3)[n+]([O-])n2)cc1` [compound 51], the CC50 was above 200 µM in experiment [1] (setting [3]) and 50 to 200 µM in experiment [2] (setting [4]). For `[O-][n+]1nc(Cl)c2ccccc2c1Cl` [compound 33], in that order: 50 to 200 µM and 50 to 200 µM.

As to `COc1ccccc1S(=O)(=O)c1ccc(S(=O)(=O)c2ccccc2OC)[n+]([O-])n1` [compound 22], the CC50 in experiment [1] (setting [3]) was above 200 µM; in experiment [2] (setting [4]), below 50 µM.

For the compound `[O-][n+]1nc(Sc2ccccc2)ccc1Sc1ccccc1` [pyridazine, 3,6-bis(phenylthio)-, 1-oxide], the CC50 in experiment [2] (setting [6]) is 58.9 µM. Regarding `O=S(=O)(c1ccccc1)c1ccc(S(=O)(=O)C2CCCCC2)n[n+]1[O-]` [compound 41], the CC50 in experiment [1] (setting [3]) is above 200 µM; in experiment [2] (setting [4]), below 50 µM. For `CCS(=O)(=O)c1ccc(S(=O)(=O)C2CCCCC2)[n+]([O-])n1` [compound 36], in that order: 50 to 200 µM and below 50 µM. For the compound `Cc1ccc(S(=O)(=O)c2ccc(S(=O)(=O)C3CCCCC3)[n+]([O-])n2)cc1` [compound 49], the CC50 in experiment [1] (setting [3]) was above 200 µM; in experiment [2] (setting [4]), 50 to 200 µM. The matching figures for `[O-][n+]1cc(Cl)ccc1Cl` [compound 35]: above 200 µM and above 200 µM. As to `O=S(=O)(c1ccncc1)c1ccc(S(=O)(=O)C2CCCCC2)[n+]([O-])n1` [compound 60], the values for the CC50 in experiment [1] (setting [3]) and in experiment [2] (setting [4]) were above 200 µM and 50 to 200 µM, respectively. Take `[O-][n+]1nc(Cl)ccc1Cl` [compound 2]: the CC50 in experiment [1] (setting [3]) is above 200 µM; in experiment [2] (setting [4]), below 50 µM.

The values above are taken from patent US20040242886A1, “Monocyclic diazodioxide based Bcl-2 protein antagonists related applications” (priority 2003, published 2004).
